Reference: article doi:10.1101/757047v1 (biorxiv, 2019)
Where two headings read alike, the source gives them in different places.

Legend:
GAK [1] = molecular target: T1, GAK (Homo sapiens, UniProt O14976); test: biochemical
T1 sequence (O14976 12-347 limits assumed): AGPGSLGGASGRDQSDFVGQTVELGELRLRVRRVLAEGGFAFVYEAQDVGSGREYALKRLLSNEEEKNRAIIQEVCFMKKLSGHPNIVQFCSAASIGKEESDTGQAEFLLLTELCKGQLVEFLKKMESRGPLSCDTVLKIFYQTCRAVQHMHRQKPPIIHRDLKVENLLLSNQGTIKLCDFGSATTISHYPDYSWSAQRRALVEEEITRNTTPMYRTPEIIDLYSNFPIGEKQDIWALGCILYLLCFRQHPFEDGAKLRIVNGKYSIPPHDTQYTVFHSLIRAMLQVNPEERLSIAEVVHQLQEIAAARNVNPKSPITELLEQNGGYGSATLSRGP

SLK [2] = molecular target: T2, SLK (Homo sapiens, UniProt Q9H2G2); test: biochemical
T2 sequence (Q9H2G2 34-292): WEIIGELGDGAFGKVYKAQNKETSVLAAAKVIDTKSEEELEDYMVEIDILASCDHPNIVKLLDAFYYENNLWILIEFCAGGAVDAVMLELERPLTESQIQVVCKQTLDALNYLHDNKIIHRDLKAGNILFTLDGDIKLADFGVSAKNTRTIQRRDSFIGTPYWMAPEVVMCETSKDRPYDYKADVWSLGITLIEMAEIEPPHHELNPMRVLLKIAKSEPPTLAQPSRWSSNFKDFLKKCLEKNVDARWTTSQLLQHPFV

STK10 [3] = molecular target: T3, STK10 (Homo sapiens, UniProt O94804); test: biochemical
T3 sequence (O94804 36-294 limits assumed): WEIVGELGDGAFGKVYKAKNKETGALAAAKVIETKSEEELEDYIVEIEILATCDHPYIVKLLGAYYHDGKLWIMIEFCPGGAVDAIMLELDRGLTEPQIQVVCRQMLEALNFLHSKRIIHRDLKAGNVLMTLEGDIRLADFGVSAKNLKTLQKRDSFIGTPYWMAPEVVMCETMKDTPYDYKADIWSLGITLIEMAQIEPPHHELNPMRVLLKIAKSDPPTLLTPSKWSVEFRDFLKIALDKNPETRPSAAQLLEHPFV

[4] = molecular target: T4, full length GAK protein N-terminally fused with NanoLuc luciferase (Homo sapiens, UniProt O14976); test: cell-based; set-up: species or system HEK293T
T4 sequence (O14976 2-1311): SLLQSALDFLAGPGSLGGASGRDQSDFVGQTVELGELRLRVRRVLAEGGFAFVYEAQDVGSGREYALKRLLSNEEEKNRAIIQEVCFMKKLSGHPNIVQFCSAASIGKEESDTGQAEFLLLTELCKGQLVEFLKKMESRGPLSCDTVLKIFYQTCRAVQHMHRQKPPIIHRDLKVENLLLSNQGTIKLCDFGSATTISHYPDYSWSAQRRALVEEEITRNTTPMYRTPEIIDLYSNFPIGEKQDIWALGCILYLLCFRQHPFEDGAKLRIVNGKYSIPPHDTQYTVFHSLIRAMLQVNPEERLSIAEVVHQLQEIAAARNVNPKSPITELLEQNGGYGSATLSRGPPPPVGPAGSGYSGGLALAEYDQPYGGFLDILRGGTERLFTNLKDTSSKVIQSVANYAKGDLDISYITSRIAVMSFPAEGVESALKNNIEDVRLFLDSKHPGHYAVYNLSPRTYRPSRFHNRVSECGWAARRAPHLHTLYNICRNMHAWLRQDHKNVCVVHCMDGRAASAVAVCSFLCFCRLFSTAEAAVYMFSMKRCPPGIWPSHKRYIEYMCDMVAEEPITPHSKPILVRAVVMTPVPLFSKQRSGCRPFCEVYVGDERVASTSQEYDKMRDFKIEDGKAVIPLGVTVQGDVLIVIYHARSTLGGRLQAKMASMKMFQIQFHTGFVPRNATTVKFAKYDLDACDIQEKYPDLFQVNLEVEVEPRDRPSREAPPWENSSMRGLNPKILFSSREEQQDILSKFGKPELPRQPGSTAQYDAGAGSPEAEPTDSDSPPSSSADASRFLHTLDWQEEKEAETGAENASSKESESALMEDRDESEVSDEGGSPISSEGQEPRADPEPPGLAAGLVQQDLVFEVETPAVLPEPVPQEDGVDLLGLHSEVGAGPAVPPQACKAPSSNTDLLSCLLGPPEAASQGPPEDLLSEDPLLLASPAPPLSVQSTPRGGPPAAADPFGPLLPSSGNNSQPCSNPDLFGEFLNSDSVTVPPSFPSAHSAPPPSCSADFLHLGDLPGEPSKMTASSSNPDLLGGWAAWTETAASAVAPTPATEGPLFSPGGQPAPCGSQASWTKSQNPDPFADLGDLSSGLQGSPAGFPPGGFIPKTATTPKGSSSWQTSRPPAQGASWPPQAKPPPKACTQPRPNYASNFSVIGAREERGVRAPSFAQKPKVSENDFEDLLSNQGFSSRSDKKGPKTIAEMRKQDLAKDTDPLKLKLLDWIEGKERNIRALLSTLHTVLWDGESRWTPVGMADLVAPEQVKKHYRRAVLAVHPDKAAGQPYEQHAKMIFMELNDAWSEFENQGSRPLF

GAK [5] = molecular target: T1, GAK; test: biochemical; remark: listed apart in the source
SLK [6] = molecular target: T2, SLK; test: biochemical; remark: listed apart in the source
STK10 [7] = molecular target: T3, STK10; test: biochemical; remark: listed apart in the source
[8] = molecular target: T4, full length GAK protein N-terminally fused with NanoLuc luciferase; test: cell-based; set-up: species or system HEK293T; remark: listed apart in the source
GAK [9] = molecular target: T1, GAK; test: biochemical; remark: listed apart in the source
SLK [10] = molecular target: T2, SLK; test: biochemical; remark: listed apart in the source
STK10 [11] = molecular target: T3, STK10; test: biochemical; remark: listed apart in the source
[12] = molecular target: T4, full length GAK protein N-terminally fused with NanoLuc luciferase; test: cell-based; set-up: species or system HEK293T; remark: listed apart in the source
SLK [13] = molecular target: T2, SLK; test: TR-FRET binding displacement assay
STK10 [14] = molecular target: T3, STK10; test: TR-FRET binding displacement assay

SMILES | Ki (GAK [1]) | IC50 [4] | Ki (GAK [5]) | Ki (SLK [6]) | Ki (STK10 [7]) | IC50 [8] | further results
C#Cc1cccc(Nc2c(C#N)cnc3ccc(Br)cc23)c1 [compound 78, 78] | 17 nM | 4400 nM | – | – | – | – | Ki (SLK [2]): 1200 nM; Ki (STK10 [3]): 1100 nM
COc1cc(Nc2c(C#N)cnc3ccc(Cl)cc23)cc(OC)c1OC [compound 44, 44] | – | – | 3.8 nM | 53000 nM | 26000 nM | 240 nM | –
C#Cc1cccc(Nc2c(C#N)cnc3ccccc23)c1 [compound 75, 75] | 18 nM | 1500 nM | – | – | – | – | Ki (SLK [2]): 350 nM; Ki (STK10 [3]): 340 nM
COc1cc(Nc2c(C#N)cnc3ccccc23)cc(OC)c1OC [compound 43, 43] | – | – | 8.8 nM | 7700 nM | 4700 nM | 330 nM | –
COc1cc(Nc2c(C#N)cnc3ccc(I)cc23)cc(OC)c1OC [compound 46, 46] | – | – | 4.8 nM | 9700 nM | 4200 nM | 260 nM | –
COc1ccc2ncc(C#N)c(Nc3cc(OC)c(OC)c(OC)c3)c2c1 [compound 47, 47] | – | – | 2.4 nM | 3200 nM | 1900 nM | 92 nM | –
COc1cc2ncc(C#N)c(Nc3cc(OC)c(OC)c(OC)c3)c2cc1OC [compound 48, 48] | – | – | – | – | – | – | Ki (GAK [5]; read-out: GAK Ki, binder): 0.85 nM; Ki (SLK [6]; read-out: SLK Ki, binder): 570 nM; Ki (STK10 [7]; read-out: STK10 Ki, binder): 420 nM; IC50 ([8]; read-out: NanoBRET GAK IC50, binder): 6 nM
COc1ccc2c(Nc3cc(OC)c(OC)c(OC)c3)c(C#N)cnc2c1 [compound 53, 53] | – | – | 2 nM | 2100 nM | 1200 nM | 78 nM | –
C#Cc1cccc(Nc2c(C#N)cnc3ccc(F)cc23)c1 [compound 76, 76] | 26 nM | 3800 nM | – | – | – | – | Ki (SLK [2]): 540 nM; Ki (STK10 [3]): 580 nM
Fc1ccccc1Nc1ccnc2ccc(Br)cc12 [compound 111, 111] | – | – | – | – | – | – | Ki (GAK [9]): 49 nM; Ki (SLK [10]): > 55000 nM; Ki (STK10 [11]): 30000 nM; IC50 [12]: 2600 nM
COc1cc(Nc2c(C#N)cnc3ccc(S(C)(=O)=O)cc23)cc(OC)c1OC [compound 49, 49] | – | – | 210 nM | 1200 nM | 1500 nM | > 5000 nM | –
C#Cc1cccc(Nc2c(C#N)cnc3ccc(S(C)(=O)=O)cc23)c1 [compound 80, 80] | 180 nM | > 5000 nM | – | – | – | – | Ki (SLK [2]): > 55000 nM; Ki (STK10 [3]): 42000 nM
C#Cc1cccc(Nc2c(C#N)cnc3cc(I)ccc23)c1 [compound 86, 4-((3-ethynylphenyl)amino)-7-iodoquinoline-3-carbonitrile] | 19 nM | > 5000 nM | – | – | – | – | Ki (SLK [13]): 75 nM; Ki (STK10 [14]): 80 nM
Brc1cccc(Nc2ncnc3ccc(Br)cc23)c1 [compound 113, 113] | – | – | – | – | – | – | Ki (GAK [9]): 84 nM; Ki (SLK [10]): 9400 nM; Ki (STK10 [11]): 6000 nM; IC50 [12]: > 5000 nM
COc1cc(Nc2c(C#N)cnc3ccc(Br)cc23)cc(OC)c1OC [compound 45, 45] | – | – | 2.3 nM | 9400 nM | – | 200 nM | –
